Experimental findings from US20240197699A1, “BE[…] FOR USE IN THERAPY” (MOLECULAR RESEARCH PHARMACT S.R.L., priority 2021, published 2024) are described below.

The test system of test [1] is AMPK, the downstream intracellular mediator of adiponectin receptors. Put plainly: Concentration-dependent activation of AMPK in HT22 neuronal cells (western blot, pAMPK/AMPK). Format: cell-based, mouse. The note with it: HT22 cells, 0, 10, 25 nM, 30 minutes, serum-free DMEM. As for the experimental part:
A rabbit anti-phospho-AMPK polyclonal antibody (pAMPK) (Cell Signaling Technology, Ltd.), a rabbit anti-AMPK polyclonal antibody (Cell Signaling Technology, Ltd.) and an HRP conjugated mouse monoclonal anti-β-actin antibody (Cell Signaling Technology, Ltd.) were used as primary antibodies after being suitably diluted. An HRP-labeled rabbit IgG goat antibody (Dako, Glostrup, Denmark) was used as a secondary antibody.
Under conditions of 5% CO2 at 37° C., mouse neuronal cells (HT22) were maintained and expanded in a Dulbecco-modified high-glucose Eagle medium (DMEM, GIBCO, Invitrogen, Life Technologies Hong Kong Ltd.), containing 10% fetal bovine serum (FBS, HiClone, Cytiva Co., Ltd.) and 1% v/v penicillin/streptomycin (Life Technologies Hong Kong Ltd.).
The compound was dissolved in DMSO (Sigmaldrich Co Ltd.) at a concentration of 10 mM as a stock. […]
Each cell sample was homogenized in ice-cold lysis buffer (Cell Signaling Technology, USA), containing a cocktail of protease inhibitors, by ultrasonic homogenizer before being centrifuged at 12,000×g, 4° C. for 15 min. […] The protein concentration of each fraction was measured using the BioRad Protein Assay reagent (Bio-Rad Laboratories, Inc.). […] The densitometric analysis of the bands detected by the chemiluminescent reaction was quantified by the Image J software (NIH: National Institutes of Health). […]
On the technique in general: A western blot detects proteins with antibodies after separation by electrophoresis.

The next test has as its target T1, AdipoR1 (Mus musculus, UniProt Q91VH1).
T1 construct: siAdipoR1, siAdipoR2 were prepared in DMEM to break down the expression of AdipoR1 and AdipoR2, respectively; endogenous in cells; host or cells: HT22 mouse neuronal cells
T1 sequence (Q91VH1 1-375): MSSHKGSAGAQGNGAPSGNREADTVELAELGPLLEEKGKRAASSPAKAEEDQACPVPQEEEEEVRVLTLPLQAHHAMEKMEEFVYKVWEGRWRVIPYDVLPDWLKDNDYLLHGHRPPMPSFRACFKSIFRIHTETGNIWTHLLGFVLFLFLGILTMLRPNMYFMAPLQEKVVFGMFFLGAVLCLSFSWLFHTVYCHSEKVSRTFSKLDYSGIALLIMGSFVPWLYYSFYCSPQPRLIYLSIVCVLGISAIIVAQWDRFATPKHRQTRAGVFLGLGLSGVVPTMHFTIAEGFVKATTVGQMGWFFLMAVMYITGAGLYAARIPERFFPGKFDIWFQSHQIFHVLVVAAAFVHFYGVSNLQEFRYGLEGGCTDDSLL
Put plainly: AMPK activation by the compound in HT22 cells under AdipoR1 knock-down (siAdipoR1). The note with it: HT22 cells transfected with siAdipoR1, compound 25 nM, 30 minutes. It counts as cell-based. From the text:
A rabbit adiponectin anti-receptor 1 polyclonal antibody (AdipoR1)(Abcam, Cambridge, MA, USA), a rabbit adiponectin anti-receptor 2 polyclonal antibody (AdipoR2) (Boster Biological Technology, USA), an anti-phospho-AMPK (pAMPK) rabbit polyclonal antibody (Cell Signaling Technology, Ltd.), an anti-AMPK rabbit polyclonal antibody (Cell Signaling Technology, Ltd.) and an HRP conjugated mouse monoclonal anti-§ (beta)-actin antibody (Cell Signaling Technology, Ltd.) were used as primary antibodies after being suitably diluted. An HRP conjugated goat anti-rabbit IgG antibody (Dako, Glostrup, Denmark) was used as secondary antibody.
Under conditions of 5% CO2 at 37° C., mouse neuronal cells (HT22) are maintained and expanded in a Dulbecco-modified high-glucose Eagle medium (DMEM, GIBCO, Invitrogen, Life Technologies Hong Kong Ltd.), containing 10% fetal bovine serum (FBS, HiClone, Cytiva Co., Ltd.) and 1% v/v penicillin/streptomycin (Life Technologies Hong Kong Ltd.).
SiRNA scramble (non-targeting RNA), siAdipoR1 and siAdipoR2 were purchased from Santa Cruz Biotechnology. siAdipoR1, siAdipoR2 were prepared in DMEM to break down the expression of AdipoR1 and AdipoR2, respectively. […]
The extraction of each soluble fraction and the quantification of the proteins in each soluble fraction by western blot analysis were performed according to procedures similar to section 1.4 of Experiment 1.

A further test deals with NSC-34 cells. Put plainly: Viability of NSC-34 neuronal cells under high glucose (hyperglycemia-induced apoptosis). It counts as cell-based. Conditions: pre-treatment 25 nM, then 100 mM glucose. As for the experimental part: A high glucose level is the cause of neuronal apoptosis leading to diabetic neuropathy. To examine whether SS-SRGR-(+7) can protect neurons from the hyperglycemic condition, neuronal cells in different glucose concentrations (0, 25, 50, 100 mM) were grown. […] NSC-34 neurons were then pre-treated with or without SS-SRGR-(+7)(25 nM) prior to incubation with 100 mM glucose.

Take `CC1C2Cc3ccc(O)cc3C1(C)CCN2CCC(C(=O)N(C)C)(c1ccccc1)c1ccccc1` (stereo not drawn) [SS-SRGR-(+7), 4-(8-hydroxy-6,11-dimethyl-1,4,5,6-tetrahydro-2,6-methane-3-benzazocin-3(2H)-yl)-N,N-dimethyl-2,2-diphenylbutanamide]: in test [1], the “amounts of pAMPK proteins (pAMPK/AMPK ratio, densitometry)” value is listed as “increase significantly in a concentration-dependent manner”. Also, the “SS-SRGR-(+7)-induced AMPK activation under Adipo-R1 knock-down compared to siCtrl-transfected HT22 cells” value at AdipoR1 is on record as “significantly reduced”. For the same compound, the “Cell viability of pretreated NSC34 cells versus vehicle-pretreated NSC34” value in the test with NSC-34 cells was “significantly higher”.
